Activity calls are given as the source filed them. No cut-off for these calls is given here.
Legend:
Mus musculus [1] = test: Anti-inflammatory activity against C57BL/6J mouse model of TNFalpha-induced systemic inflammatory response syndrome (SIRS) assessed as decrease in IL-1beta level in lung at 1.25 to 5 mg/kg,po 2 hrs prior to mTNFalpha and z-VAD-FMK stimulation for 8 hrs by ELISA; assay type: functional, organism-based; conditions: dose 1.25-5 mg/kg, time 10.0 hrs
Mus musculus [2] = test: Anti-inflammatory activity against C57BL/6J mouse model of TNFalpha-induced systemic inflammatory response syndrome (SIRS) assessed as decrease in IL-6 level in heart at 1.25 to 5 mg/kg,po 2 hrs prior to mTNFalpha and z-VAD-FMK stimulation for 8 hrs by ELISA; assay type: functional, organism-based; conditions: dose 1.25-5 mg/kg, time 10.0 hrs
Mus musculus [3] = test: Anti-inflammatory activity against C57BL/6J mouse model of TNFalpha-induced systemic inflammatory response syndrome (SIRS) assessed as increase in survival rate at 1.25 mg/kg,po 2 hrs prior to mTNFalpha and z-VAD-FMK stimulation and measured upto 24 hrs; assay type: functional; conditions: time 26 hrs
Mus musculus [4] = test: Anti-inflammatory activity against C57BL/6J mouse model of TNFalpha-induced systemic inflammatory response syndrome (SIRS) assessed as increase in body temperature at 1.25 mg/kg,po 2 hrs prior to mTNFalpha and z-VAD-FMK stimulation and measured upto 18 hrs by electric thermometer analysis; assay type: functional, organism-based; conditions: time 20.0 hrs
[5] = Cytotoxicity against human HT-29 cells assessed as reduction in cell viability incubated for 16 to 24 hrs by CellTiter-Glo Luminescent cell viability assay; assay type: toxicity, cell-based; conditions: time 16-24 hrs
Mus musculus [6] = test: Anti-inflammatory activity against C57BL/6J mouse model of TNFalpha-induced systemic inflammatory response syndrome (SIRS) assessed as decrease in IL-1beta level in liver at 1.25 to 5 mg/kg,po 2 hrs prior to mTNFalpha and z-VAD-FMK stimulation for 8 hrs by ELISA; assay type: functional, organism-based; conditions: dose 1.25-5 mg/kg, time 10.0 hrs
Mus musculus [7] = test: Anti-inflammatory activity against C57BL/6J mouse model of TNFalpha-induced systemic inflammatory response syndrome (SIRS) assessed as decrease in serum IL-1beta level at 1.25 to 5 mg/kg,po 2 hrs prior to mTNFalpha and z-VAD-FMK stimulation for 8 hrs by ELISA; assay type: functional, organism-based; conditions: dose 1.25-5 mg/kg, time 10.0 hrs
[8] = molecular target: Receptor-interacting serine/threonine-protein kinase 3 (Homo sapiens, UniProt Q9Y572); test: Binding affinity to recombinant RIPK3 (unknown origin) assessed as dissociation constant incubated for 1 hr by KINOMEscanTM assay
Mus musculus [9] = test: Anti-inflammatory activity against C57BL/6J mouse model of TNFalpha-induced systemic inflammatory response syndrome (SIRS) assessed as decrease in IL-6 level in kidney at 1.25 to 5 mg/kg,po 2 hrs prior to mTNFalpha and z-VAD-FMK stimulation for 8 hrs by ELISA; assay type: functional, organism-based; conditions: dose 1.25-5 mg/kg, time 10.0 hrs
Mus musculus [10] = test: Anti-inflammatory activity against C57BL/6J mouse model of TNFalpha-induced systemic inflammatory response syndrome (SIRS) assessed as increase in survival rate at 2.5 mg/kg,po 2 hrs prior to mTNFalpha and z-VAD-FMK stimulation and measured upto 24 hrs; assay type: functional; conditions: time 26 hrs
Mus musculus [11] = test: Anti-inflammatory activity against C57BL/6J mouse model of TNFalpha-induced systemic inflammatory response syndrome (SIRS) assessed as increase in body temperature at 5 mg/kg,po 2 hrs prior to mTNFalpha and z-VAD-FMK stimulation and measured upto 18 hrs by electric thermometer analysis; assay type: functional, organism-based; conditions: time 20.0 hrs
[12] = Acute toxicity in mouse assessed as behavioral changes at 100 to 200 mg/kg,IG and measured upto 14 days; assay type: organism-based; conditions: in vivo, po, 336 h, dose 100-200 mg/kg, time < 14 day
[13] = Acute toxicity in mouse assessed as pathological damage in kidney at 100 to 200 mg/kg,IG and measured after 14 days by H and E staining based microscopy; assay type: organism-based; conditions: in vivo, po, 336 h, dose 100-200 mg/kg, time 14 day
[14] = Metabolic stability in mouse liver mitochondria assessed as degradation rate at 4 micromol/L and measured upto 240 mins; assay type: ADME; conditions: 4 h, 4 µM, dose 4 µmol/L
Mus musculus [15] = test: Anti-inflammatory activity against C57BL/6J mouse model of TNFalpha-induced systemic inflammatory response syndrome (SIRS) assessed as decrease in […] IL-1beta level in heart at 1.25 to 5 mg/kg,po 2 hrs prior to mTNFalpha and z-VAD-FMK stimulation for 8 hrs by ELISA; assay type: functional, organism-based; conditions: dose 1.25-5 mg/kg, time 10.0 hrs
[16] = molecular target: T1, Receptor-interacting serine/threonine-protein kinase 1 (Homo sapiens) (UniProt Q13546); test: Inhibition of RIPK1 phosphorylation in TSZ induced human HT-29 cells at 1 uM pretreated with compound followed by TSZ stimulation for 6 hrs by Western blot analysis; assay type: cell-based
T1 sequence (whole entry): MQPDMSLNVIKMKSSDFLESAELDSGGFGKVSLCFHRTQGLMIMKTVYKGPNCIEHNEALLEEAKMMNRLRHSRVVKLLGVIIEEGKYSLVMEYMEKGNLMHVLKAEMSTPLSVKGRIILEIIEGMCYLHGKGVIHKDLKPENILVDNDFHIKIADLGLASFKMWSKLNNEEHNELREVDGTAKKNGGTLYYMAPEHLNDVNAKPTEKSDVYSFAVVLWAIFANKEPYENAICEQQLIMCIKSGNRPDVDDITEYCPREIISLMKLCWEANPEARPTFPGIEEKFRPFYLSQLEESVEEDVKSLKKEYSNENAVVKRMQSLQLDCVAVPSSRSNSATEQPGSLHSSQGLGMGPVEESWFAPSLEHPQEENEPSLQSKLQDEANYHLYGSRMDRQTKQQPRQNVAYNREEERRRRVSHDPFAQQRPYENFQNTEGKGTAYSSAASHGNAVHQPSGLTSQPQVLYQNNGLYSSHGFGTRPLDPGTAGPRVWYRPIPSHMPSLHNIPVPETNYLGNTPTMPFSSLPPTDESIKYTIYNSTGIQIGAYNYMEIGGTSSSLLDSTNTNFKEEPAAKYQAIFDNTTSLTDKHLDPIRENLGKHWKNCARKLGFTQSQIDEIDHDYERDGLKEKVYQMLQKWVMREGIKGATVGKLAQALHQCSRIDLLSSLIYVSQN

Mus musculus [17] = test: Anti-inflammatory activity against C57BL/6J mouse model of TNFalpha-induced systemic inflammatory response syndrome (SIRS) assessed as decrease in IL-1beta level in kidney at 1.25 to 5 mg/kg,po 2 hrs prior to mTNFalpha and z-VAD-FMK stimulation for 8 hrs by ELISA; assay type: functional, organism-based; conditions: dose 1.25-5 mg/kg, time 10.0 hrs
[18] = Acute toxicity in mouse assessed as pathological damage in liver at 100 to 200 mg/kg,IG and measured after 14 days by H and E staining based microscopy; assay type: organism-based; conditions: in vivo, po, 336 h, dose 100-200 mg/kg, time 14 day
Mus musculus [19] = test: Anti-inflammatory activity against C57BL/6J mouse model of TNFalpha-induced systemic inflammatory response syndrome (SIRS) assessed as decrease in IL-6 level in liver at 1.25 to 5 mg/kg,po 2 hrs prior to mTNFalpha and z-VAD-FMK stimulation for 8 hrs by ELISA; assay type: functional, organism-based; conditions: dose 1.25-5 mg/kg, time 10.0 hrs

Receptor-interacting serine/threonine-protein kinase 3, sequence (Q9Y572 whole entry): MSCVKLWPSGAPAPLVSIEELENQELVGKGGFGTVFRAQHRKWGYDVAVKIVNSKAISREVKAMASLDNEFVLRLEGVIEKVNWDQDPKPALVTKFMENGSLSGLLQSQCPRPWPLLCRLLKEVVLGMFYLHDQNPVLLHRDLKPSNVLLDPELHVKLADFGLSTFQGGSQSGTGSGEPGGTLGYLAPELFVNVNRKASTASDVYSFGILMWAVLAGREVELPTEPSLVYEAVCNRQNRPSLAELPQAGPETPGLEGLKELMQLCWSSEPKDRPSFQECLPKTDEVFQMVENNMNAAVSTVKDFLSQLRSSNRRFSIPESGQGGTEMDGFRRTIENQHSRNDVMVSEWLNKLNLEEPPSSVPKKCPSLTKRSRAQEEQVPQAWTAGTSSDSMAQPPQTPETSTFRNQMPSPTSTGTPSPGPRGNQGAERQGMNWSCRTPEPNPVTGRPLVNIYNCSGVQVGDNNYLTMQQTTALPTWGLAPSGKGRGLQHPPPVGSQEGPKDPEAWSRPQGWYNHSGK

## O=C(Cc1cccc(OC(F)(F)F)c1)Nc1cc(-c2ccc3nc(NC(=O)C4CC4)sc3c2)ccc1F
Mus musculus [1]
  Activity: Active
Mus musculus [2]
  Activity: Dose-Dependent Effect
Mus musculus [3]
  survival at 1.25 mg/kg: 70%
Mus musculus [4]
  Activity: Active
[5]
  CC50: > 10 µM
Mus musculus [6]
  Activity: inactive
Mus musculus [7]
  Activity: Active
[8]
  Kd: > 5 µM
Mus musculus [9]
  Activity: Dose-Dependent Effect
Mus musculus [10]
  survival at 2.5 mg/kg: 80%
Mus musculus [11]
  Activity: Active
[12]
  Activity: Non-Toxic
[13]
  Activity: Non-Toxic
[14]
  Stability: Stable
Mus musculus [15]
  Activity: Active
[16]
  inhibition: Active
Mus musculus [17]
  Activity: inactive
[18]
  Activity: Non-Toxic
Mus musculus [19]
  Activity: Dose-Dependent Effect

Source: ChEMBL document CHEMBL5370665, “Insight from Linker Investigations: Discovery of a Novel Phenylbenzothiazole Necroptosis Inhibitor Targeting Receptor-Interacting Protein Kinase 1 (RIPK1) from a Phenoxybenzothiazole Compound with Dual RIPK1/3 Targeting Activity” (J Med Chem, 2023)
